Earlier results as cited in patent publication US20050147665A1, “Pharmaceutical and nutritional compositions” (Laxdale Limited, priority 1999, published 2005).

Conditions: patients with end-stage renal disease; lowering homocysteine by treatment with folic acid

## Nc1nc2ncc(CNc3ccc(C(=O)N[C@@H](CCC(=O)O)C(=O)O)cc3)nc2c(=O)[nH]1 [folic acid]
  elevations of DGLA and AA levels: significant in the cases of DGLA and AA
  elevations of EPA and DHA levels: not significant in the cases of EPA and DHA
